Values of other authors in patent US20220280561A1, “COPPER-ATSM FOR TREATING NEURODEGENERATIVE DISORDERS ASSOCITED WITH MITOCHONDRIAL DYSFUNCTION” (RESEARCH INSTITUTE AT NATIONWIDE CHILDREN'S HOSPITAL, priority 2019, published 2022).

Tested on: ALS
Conditions: ALS patients; cited from earlier work

| SMILES | patient quality of life | lifespan |
| --- | --- | --- |
| CC1=NN(c2ccccc2)C(=O)C1 [Edaravone] | significant impact on patient quality of life | – |
| Nc1nc2ccc(OC(F)(F)F)cc2s1 [Riluzole] | – | modestly extending lifespan |
